Measurements from PMC5147891 (PLoS ONE, 2016).
Marks after values point to notes of the source that are not given here.

Key:
hCB1 receptors [1] = molecular target: T1, hCB1 receptors (Homo sapiens, UniProt P21554); assay: [35S]GTPγS binding (G-protein activity), CHO-hCB1 membranes; type: biochemical; settings: 10 μM
Procedure: CHO-hCB1, CHO-hCB2 and CHO-hMOR cells were homogenized individually with 10 complete strokes utilizing a 7ml Dounce glass homogenizer in an ice-cold buffer containing 50 mM HEPES pH 7.4, 3 mM MgCl2, and 1 mM EDTA as described previously. The homogenized samples were then centrifuged at 40,000 × g for 10 min at 4°C. Supernatants were discarded; the pellets re-suspended in the buffer, homogenized again, and centrifuged similarly twice more. After the final centrifugation step, supernatants were discarded and pellets were re-suspended in ice-cold 50 mM HEPES, pH 7.4 to achieve an approximate protein concentration of 10 mg/ml. Membrane homogenates were divided into aliquots and stored at −80°C for future use. A small aliquot of each membrane preparation was removed prior to freezing and the protein concentration was determined using BCA Protein Assay (Thermo Fisher Scientific, Waltham, MA).
The GTPγS binding assay to measure G-protein activation was performed as previously described. Briefly, in a total volume of 1 ml, 25 μg of CHO-hCB2, 50 μg of CHO-hCB1-Rx or 50 μg of CHO-hMOR membranes homogenates were added to each reaction mixture containing 0.1 nM [^35S]GTPγS, 20 mM HEPES, 10 mM MgCl2, 100 mM NaCl, 10 μM GDP, 0.1% bovine serum albumin and the indicated concentrations of ligand to be examined. After mixing, reaction mixtures were incubated at 30°C for 30 min. […] Nonspecific binding was defined by the amount of radioactivity remaining in the presence of 10 μM non-radiolabeled GTPγS. Reactions were terminated by rapid vacuum filtration through glass fiber filters followed by four washes with ice cold 50 mM HEPES (pH 7.4) containing 0.1% bovine serum albumin. Four ml of scintiverse scintillation fluid (Fisher Scientific, Waltham, MA) was added to the filters and the amount of radioactivity was quantified 24 hr later utilizing liquid scintillation spectrophotometry.
Data presented are expressed as mean ± standard error of the mean (S.E.M.) for a minimum of three experiments, each performed in triplicate. GraphPad Prism version 6.0f (GraphPad Software Inc.) was used for all curve-fitting and statistical analyses. Non-linear regression for one-site competition was used to determine the IC50 for competition receptor binding. IC50 values were subsequently converted to Ki values (a measure of receptor affinity) by the Cheng-Prusoff equation [31]. Non-linear regression was also used to analyze concentration-effect curves to determine the EC50 or IC50 (measures of potency) and Emax or Imax (measures of efficacy) for GTPγS binding and adenylyl cyclase experiments, respectively. […] To compare three or more groups, statistical significance of the data was determined by a one-way ANOVA, followed by post hoc comparisons using a Tukey's or Dunnett's test. […]

hCB1 receptors [2] = molecular target: T1, hCB1 receptors; assay: Forskolin-stimulated intracellular [3H]cAMP in intact CHO-hCB1 cells; type: cell-based; settings: concentration-effect curves
Procedure: CHO-hCB1, CHO-hCB2, or CHO-hMOR cells were plated separately in normal culture media into 24-well plates at a density of 6 × 10^6 cells/plate and incubated overnight at 37°C in 5% CO2. As previously described, the following day culture media was removed from each well and replaced with 500 μl pre-incubation mixture containing either HAM’s F-12 K (CHO-hCB1) or DMEM (CHO-hCB2 and CHO-hMOR) with 0.9% NaCl, 500 μM 3-isobutyl-1-methylxathine (IBMX) and 2 μCi/well [^3H]adenine. Cells were incubated for 3–5 hr at 37°C. The pre-incubation mix was removed and indicated concentrations of drugs were added to the individual wells for 15 min at 37°C in a Krebs-Ringer-HEPES solution (10 mM HEPES, 110mM NaCl, 25mM Glucose, 55mM Sucrose, 5mM KCl, 1mM MgCl2, 1.8 mM CaCl2, pH 7.4) containing IBMX, and 10 μM forskolin. […] Radioactivity contained in 4 ml of the final column eluate was counted by a Packard-Tri-carb 2100/TR liquid scintillation counter after adding 10 ml of liquid scintillation cocktail.
Data presented are expressed as mean ± standard error of the mean (S.E.M.) for a minimum of three experiments, each performed in triplicate. […] To compare three or more groups, statistical significance of the data was determined by a one-way ANOVA, followed by post hoc comparisons using a Tukey's or Dunnett's test. […]

hCB1 receptors [3] = molecular target: T1, hCB1 receptors; assay: Antagonism of CP-55,940 inhibition of AC activity in intact CHO-hCB1 cells; type: cell-based; settings: CHO-hCB1 cells
Procedure: After overnight seeding into 24-well plates and pre-incubation of cells with [^3H]adenine for 3–5 hr at 37°C as described above, media was removed and the indicated concentration of the SERM to be tested was added to all wells of the 24-well plate. […] Reactions were terminated and [^3H]cAMP isolated as described above.
Data presented are expressed as mean ± standard error of the mean (S.E.M.) for a minimum of three experiments, each performed in triplicate. GraphPad Prism version 6.0f (GraphPad Software Inc.) was used for all curve-fitting and statistical analyses. Non-linear regression for one-site competition was used to determine the IC50 for competition receptor binding. IC50 values were subsequently converted to Ki values (a measure of receptor affinity) by the Cheng-Prusoff equation [31]. Non-linear regression was also used to analyze concentration-effect curves to determine the EC50 or IC50 (measures of potency) and Emax or Imax (measures of efficacy) for GTPγS binding and adenylyl cyclase experiments, respectively. All dissociation constants and measurements of potency were converted to pKi, pKB, pEC50, or pIC50 values by taking the negative log of each value so that parametric tests could be used for statistical comparisons. To compare three or more groups, statistical significance of the data was determined by a one-way ANOVA, followed by post hoc comparisons using a Tukey's or Dunnett's test. To compare two groups, the non-paired Student's t-test was used.

T1 sequence (P21554 whole entry): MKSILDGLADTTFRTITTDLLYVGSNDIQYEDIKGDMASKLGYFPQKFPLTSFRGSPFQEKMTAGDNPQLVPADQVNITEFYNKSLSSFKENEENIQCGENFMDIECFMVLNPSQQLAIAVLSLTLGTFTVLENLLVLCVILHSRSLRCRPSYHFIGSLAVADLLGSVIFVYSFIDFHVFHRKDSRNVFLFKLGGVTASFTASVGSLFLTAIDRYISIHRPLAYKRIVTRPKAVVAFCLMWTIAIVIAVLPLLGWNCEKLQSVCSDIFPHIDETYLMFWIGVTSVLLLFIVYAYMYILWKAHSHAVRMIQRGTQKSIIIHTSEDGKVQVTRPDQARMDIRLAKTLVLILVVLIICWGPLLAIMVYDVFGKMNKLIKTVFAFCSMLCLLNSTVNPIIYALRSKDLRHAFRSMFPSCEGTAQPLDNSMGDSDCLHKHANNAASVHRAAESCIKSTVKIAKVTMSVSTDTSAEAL

With `Cc1c(C(=O)NN2CCOCC2)nn(-c2ccc(Cl)cc2Cl)c1-c1ccc(I)cc1` [AM-281] the “Effect on basal [35S]GTPγS binding” value (hCB1 receptors [1]) was “decreased”, the “IMAX, inhibition of basal [35S]GTPγS binding” value (hCB1 receptors [1]) was 33. ± 3.2% and the “Effect on basal cAMP levels” value (hCB1 receptors [2]) was “did not alter cAMP levels”. The “Type of antagonism of CP-55,940” value (hCB1 receptors [3]) was “surmountable antagonism”, the pKb (hCB1 receptors [3]; against CP-55,940, AM-281 1 μM, Z-4OHT 10 μM, Z-End 30 μM) was 6.81 ± 0.061 and the Kb (hCB1 receptors [3]; against CP-55,940, AM-281 1 μM, Z-4OHT 10 μM, Z-End 30 μM, read-out: Kb (antagonist dissociation constant)) was 155 nM. For the same molecule, the “Shift (decrease) in potency (IC50) of CP-55,940” value (hCB1 receptors [3]; AM-281 1 μM, Z-Tam 30 μM) was “greater than 8 fold” and the “IMAX of CP-55,940, intracellular [3H]cAMP” value (hCB1 receptors [3]; CP-55,940 alone or after pre-incubation with AM-281 1 μM, Z-Tam 30 μM, Z-4OHT 10 μM, Z-End 30 μM) was 35.7 ± 0.9^a %.
